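Dose response: 5 concentrations. Exposure: 48 h. Format: 96-well plates. Endpoint: linear interpolation; highest concentration if not reached. GI50 = concentration required for 50% inhibition of growth.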 Calls of active or inactive are those of the source. Cut-off read from the data, not from the text of the source: active = GI50 up to about 1.1 µM and inactive = higher. Non-standard residues stand in square brackets, D forms with d. Residues, ends and D or L forms follow the SMILES beside them. Ava = NCCCCC(=O)O; Mpa = O=C(O)CCS
What was measured:
Test in all cases: growth of human tumour cells (NCI), 48 h
[1] = tested on: HOP-62
[2] = tested on: SK-MEL-2
[3] = tested on: NCI-H226
[4] = tested on: EKVX
[5] = tested on: LOX IMVI
[6] = tested on: HL-60
[7] = tested on: IGROV-1
[8] = tested on: OVCAR-5
[9] = tested on: U-251
[10] = tested on: HT-29
[11] = tested on: SK-OV-3
[12] = tested on: UO-31
[13] = tested on: Hs-578T
[14] = tested on: TK-10
[15] = tested on: UACC-257
[16] = tested on: K562
[17] = tested on: M14
[18] = tested on: RPMI-8226
[19] = tested on: RXF 393
[20] = tested on: OVCAR-3

Measured: GI50

CC(NC(=O)CCS)C(=O)NC(C)C(=O)NC(Cc1c[nH]c2ccccc12)C(=O)NC(Cc1c[nH]cn1)C(=O)NC(CO)C(=O)NC(Cc1c[nH]c2ccccc12)C(=O)NCCCCC(=O)NC(C)C(=O)NC(CCC(N)=O)C(=O)NC(CCCCN)C(=O)NC(C)C(=O)NC(CCCNC(=N)N)C(=O)NC(CCCCN)C(N)=O (stereo not given) ([Mpa]AAWHSW[Ava]AQKARK-NH2; configuration not given here)
inactive: [1] > 100 µM | [2] > 100 µM | [3] > 100 µM | [4] > 100 µM | [5] > 100 µM | [6] 24.7 µM | [7] > 100 µM | [8] > 100 µM | [9] 43.2 µM | [10] > 100 µM | [11] > 100 µM | [12] > 100 µM | [13] > 100 µM | [14] > 100 µM | [15] 24.2 µM | [16] 26.9 µM | [17] > 100 µM | [18] > 100 µM | [19] > 100 µM | [20] > 100 µM
